Assay results published in patent US10213415B2, “Compounds as opioid receptor modulators” (JANSSEN PHARMACEUTICA NV, priority 2004, dated 2019).
Read-outs that look alike come from different tables or passages of the source.

Tests used:
mu opioid receptor = target: T1, mu opioid receptor (Rattus norvegicus, UniProt P33535); assay: Rat Brain Mu Opioid Receptor Binding Assay (and Version 2a, [3H]DAMGO); conditions: rat forebrain membranes, margin of error 10-20%, read-out: r Ki μ
T1 construct: from tissue; host or cells: forebrain of male Wistar rats
Procedure: Male, Wistar rats (150-250 g, VAF, Charles River, Kingston, N.Y.) are killed by cervical dislocation, and their brains removed and placed immediately in ice cold Tris HCl buffer (50 mM, pH 7.4). The forebrains are separated from the remainder of the brain by a coronal transection, beginning dorsally at the colliculi and passing ventrally through the midbrain-pontine junction. After dissection, the forebrains are homogenized in Tris buffer in a Teflon® glass homogenizer. The homogenate is diluted to a concentration of 1 g of forebrain tissue per 80 mL Tris and centrifuged at 39,000×g for 10 min. The pellet is resuspended in the same volume of Tris buffer containing 5 mM MgCl2 with several brief pulses from a Polytron homogenizer. This particulate preparation is used for the mu-opioid binding assays. […] The filters are rinsed three times with 2 mL of 10 mM HEPES (pH7.4), and dried in a microwave oven 2 min twice. To each sample area 2×50 μL of Betaplate Scint scintillation fluid (LKB) is added and analyzed on a LKB (Wallac) 1205 BetaPlate liquid scintillation counter.
The data are used to calculate either the % inhibition compared to control binding (when only a single concentration of test compound is evaluated) or a Ki value (when a range of concentrations is tested). % inhibition is calculated as: [(total dpm-test compound dpm)/(total dpm-nonspecific dpm)]*100. Kd and Ki values were calculated using GraphPad PRISM data analysis program.
Male, Wistar rats (150-250 g, VAF, Charles River, Kingston, N.Y.) were killed by cervical dislocation, and their brains removed and placed immediately in ice-cold Tris HCl buffer (50 mM, pH 7.4). The forebrains were separated from the remainder of the brain by a coronal transection, beginning dorsally at the colliculi and passing ventrally through the midbrain-pontine junction. After dissection, the forebrains were homogenized in Tris buffer in a Teflon®-glass homogenizer. The homogenate was diluted to a concentration of 1 g of forebrain tissue per 80 mL Tris and centrifuged at 39,000×g for 10 min. The pellet was resuspended in the same volume of Tris buffer containing 5 mM MgCl2 with several brief pulses from a Polytron homogenizer. This particulate preparation was used for the mu opioid binding assay. Following incubation with 0.8 nM of the mu selective ligand [^3H]DAMGO at 25° C. for 2.5 h in a 96-well plate with total 1 mL, the plate contents were filtered through Wallac filtermat B sheets on a Tomtec 96-well harvester. The filters were rinsed three times with 2 mL of 10 mM HEPES (pH 7.4), and dried in a microwave oven. To each sample area, Betaplate Scint scintillation fluid (LKB) was added and the resulting radioactivity quantified on a LKB (Wallac) 1205 BetaPlate liquid scintillation counter. Kd and Ki values were calculated using the GraphPad PRISM data analysis program.

human mu opioid receptor = target: T2, human mu opioid receptor (Homo sapiens, UniProt P35372); assay: Human Mu Opioid Receptor Binding Assay (CHO membranes, 3H-Damgo); conditions: read-out: hKi μ
T2 construct: purchased Perkin Elmer RBHOMM400UA; host or cells: Chinese Hamster Ovary cells (recombinant expression)
Procedure, shortened: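 Membranes from CHO cells expressing human mu opioid receptor, 300 μg/mL, in 50 mM Tris pH 7.5, 5 mM MgCl2. Incubated with compound and ³H-Damgo (3.6 nM before mixing) for 2 h at room temperature, filtered, counted by scintillation. Nonspecific binding with 1 μM unlabelled Damgo.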

[1] = target: T3, human delta subtype 2 opioid receptor (Homo sapiens, UniProt P41143); assay: Human Delta Opioid Receptor Binding Assay (CHO membranes, 3H-Naltrindole); conditions: read-out: hKi δ
T3 construct: purchased Perkin Elmer RBHODM400UA; host or cells: Chinese Hamster Ovary cells (recombinant expression)
Procedure, shortened: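 Filtration binding on CHO-cell membranes expressing the human receptor, in 50 mM Tris pH 7.5 with 5 mM MgCl2, 30 min at room temperature; 3H-naltrindole diluted to 6 nM before mixing 1:1 with compound. Nonspecific binding defined with 1 μM unlabelled naltrindole; inhibition relative to no-inhibitor wells.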

[2] = target: T4, mu opioid receptor (CHO-hMOR cell membranes) (Homo sapiens, UniProt P35372); assay: Mu Opioid Receptor Functional Assay: [35S]GTPγS Binding in CHO-hMOR Cell Membranes, Versions 1 and 2; assay type: biochemical
T4 construct: purchased Receptor Biology, Inc. (Baltimore, Md.); host or cells: CHO cells (recombinant expression)
Procedure: CHO-hMOR cell membranes were purchased from Receptor Biology, Inc. (Baltimore, Md.). About 10 mg/ml of membrane protein was suspended in 10 mM TRIS-HCl pH 7.2, 2 mM EDTA, 10% sucrose, and the suspension kept on ice. One ml of membranes was added to 15 ml cold binding assay buffer containing 50 mM HEPES, pH 7.6, 5 mM MgCl2, 100 mM NaCl, 1 mM DTT and 1 mM EDTA. The membrane suspension was homogenized with a Polytron and centrifuged at 3,000 rpm for 10 min. The supernatant was then centrifuged at 18,000 rpm for 20 min. The pellet was resuspended in 10 ml assay buffer with a Polytron.
The membranes were preincubated with wheat germ agglutinin coated SPA beads (Amersham) at 25° C. for 45 min in the assay buffer. The SPA bead (5 mg/ml) coupled membranes (10 μg/ml) were then incubated with 0.5 nM [^35S]GTPγS in the assay buffer. […] A range of concentrations of receptor agonists was used to stimulate [^35S]GTPγS binding. Both basal and non-specific binding was tested in the absence of agonist; non-specific binding determination included 10 μM unlabeled GTPγS.
Compounds were tested for function as antagonists by evaluating their potential to inhibit agonist-stimulated GTPγS binding. Radioactivity was quantified on a Packard TopCount. The following parameters were calculated:
[formula] % Inhibition=(% stimulation by 1 μM SNC80−% stimulation by 1 μM SNC80 in presence of test compound)×100/(% Stimulation by 1 μM SNC80−100)
EC50 values were calculated using GraphPad Prism.

[3] = test system: novel environment-stressed mice; assay: In Vivo Assay-Stress-Induced Fecal Output (Fecal Output for 1 hr); set-up: species or system mouse; conditions: for Fecal Output (# pellets) cpd: novel environment-stressed mice; for Fecal Output (# pellets) cpd / response vs control in vivo at 30 mg/kg / response vs control in vivo at 10 mg/kg: 1 hr; for response vs control in vivo at 30 mg/kg / response vs control in vivo at 10 mg/kg: Mus musculus, po, 1 h
Text: This assay evaluates the fecal output in novel environment-stressed mice to that of acclimated controls.
Methods: Adult, male, Crl:CD-1(ICR) mice, weighing ˜30-35 g were used in these studies, with a minimum of 10 mice per dose group. One group of mice was assigned as acclimated, or “non-stressed” controls. These control mice were transported from colony housing, where they were housed 3/cage in polycarbonate cages with access to food and water ad lib. to the procedure room. The mice were removed from their home cages and individually housed in 20 cm wide×20 cm deep×15 cm tall cages, equipped with a wire mesh bottom where they remained for a 16-18 hr period of acclimation to their novel environment. Mice were allowed access to food and water ad lib. during acclimation. The other groups of mice were assigned as non-acclimated, or “stressed” treatment groups. Each mouse in each group was weighed and vehicle, or test compound, was intragastrically administered by oral intubation in 0.5% methylcellulose. Mice were allowed access to water only ad lib. during the test period. After compound administrations, acclimated (control) as well as non-acclimated (stressed) mice were individually housed in a 20 cm wide×20 cm deep×15 cm tall cage, with a wire mesh bottom. An absorbant cardboard is placed beneath the cages. The number of fecal pellets excreted by each mouse was determined at hourly intervals following placement of the mice in the individual cages. Raw Data=# of fecal pellets/mouse/hr. […]

[4] = 30 mg/kg oral, relative to acclimated control, read-out: Fecal Output cpd % control
[5] = 30 mg/kg oral, relative to novel environment stress (NES) vehicle group, read-out: Fecal Output cpd % NES

T3 sequence (P41143 whole entry): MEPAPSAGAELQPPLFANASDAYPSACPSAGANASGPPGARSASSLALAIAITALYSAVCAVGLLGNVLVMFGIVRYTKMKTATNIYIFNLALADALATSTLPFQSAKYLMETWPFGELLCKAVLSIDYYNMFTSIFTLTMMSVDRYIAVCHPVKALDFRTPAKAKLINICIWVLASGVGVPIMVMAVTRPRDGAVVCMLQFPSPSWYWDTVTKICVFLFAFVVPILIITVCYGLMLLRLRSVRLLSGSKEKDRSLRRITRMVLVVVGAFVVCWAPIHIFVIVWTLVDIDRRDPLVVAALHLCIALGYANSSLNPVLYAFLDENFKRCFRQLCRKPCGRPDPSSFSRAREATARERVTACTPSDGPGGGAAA
T2 sequence (P35372 whole entry): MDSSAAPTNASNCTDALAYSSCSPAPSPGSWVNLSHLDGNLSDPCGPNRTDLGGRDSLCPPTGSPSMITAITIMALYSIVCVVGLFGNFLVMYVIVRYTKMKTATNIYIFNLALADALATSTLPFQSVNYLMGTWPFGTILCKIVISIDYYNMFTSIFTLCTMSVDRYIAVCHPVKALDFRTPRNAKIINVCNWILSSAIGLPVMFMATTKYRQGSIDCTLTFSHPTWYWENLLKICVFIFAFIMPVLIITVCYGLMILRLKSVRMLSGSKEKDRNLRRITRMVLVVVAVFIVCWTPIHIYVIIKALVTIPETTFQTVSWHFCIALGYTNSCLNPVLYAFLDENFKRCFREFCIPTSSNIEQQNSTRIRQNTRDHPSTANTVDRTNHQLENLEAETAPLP
T1 sequence (P33535 whole entry): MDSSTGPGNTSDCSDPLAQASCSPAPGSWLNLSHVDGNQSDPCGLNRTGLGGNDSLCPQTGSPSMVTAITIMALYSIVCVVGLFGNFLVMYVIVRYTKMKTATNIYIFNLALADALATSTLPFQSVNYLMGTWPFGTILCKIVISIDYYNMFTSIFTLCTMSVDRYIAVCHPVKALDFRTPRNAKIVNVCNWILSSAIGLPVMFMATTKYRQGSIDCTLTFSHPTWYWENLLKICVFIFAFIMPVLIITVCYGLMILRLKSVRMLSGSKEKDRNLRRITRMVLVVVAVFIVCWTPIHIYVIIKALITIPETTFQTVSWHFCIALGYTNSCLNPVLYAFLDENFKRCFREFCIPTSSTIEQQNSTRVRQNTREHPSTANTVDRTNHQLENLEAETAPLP
T4 sequence (P35372 whole entry): as the sequence (P35372 whole entry) above

SMILES	Ki (human mu opioid receptor) [nM]	Ki [1] [nM]	Fecal Output (# pellets) cpd ([3]; 30 mg/kg oral) [pellets]	response vs control in vivo at 30 mg/kg [3, 4] [%]	response vs control in vivo at 30 mg/kg [3, 5] [%]	other results
Cc1cc(O)cc(C)c1C[C@H](N)C(=O)N[C@@H](CC(C)C)c1nc(-c2ccccc2)c[nH]1 [Cpd 176]	–	–	–	–	–	Ki (mu opioid receptor): 156 nM
Cc1cc(O)cc(C)c1C[C@H](N)C(=O)N(C(C)C)[C@@H](Cc1cccc(C#N)c1)c1nc(-c2ccccc2)c[nH]1 [Cpd 122]	12.8	107	–	–	–	MOR GTP binding assay_v1 (% I) ([2]; version 1, % inhibition of agonist-stimulated GTPγS binding): 41.93%; MOR GTP assay_v1 % of Basal ([2]; version 1, basal binding = 100%): 278.08%
CC(C)C[C@@H](c1nc(-c2ccccc2)c[nH]1)N(C)C(=O)[C@@H](N)Cc1cccc(C#N)c1 [Cpd 169]	–	–	–	–	–	Ki (mu opioid receptor): 853 nM
COc1ccc(CN(C(=O)[C@@H](N)Cc2c(C)cc(O)cc2C)[C@@H](C)c2nc(-c3ccccc3)c[nH]2)cc1OC [Cpd 102]	3.5	5.2	3.4	59.6	22.7	# of pellets, Compound (m) 3.0 ([3]; dose 3.0, oral, NES mice, fecal output 1 hr): 6.9; Fecal pellet output, Compound (% control) 3.0 ([3]; dose 3.0, oral, NES mice, vs acclimated control): 130.2 % control; Fecal pellet output, Compound (% NES) 3.0 ([3]; dose 3.0, oral, vs vehicle NES group): 64.5 % NES; # of pellets, Compound (m) 10.0 ([3]; dose 10.0, oral, NES mice, fecal output 1 hr): 4.5; Fecal pellet output, Compound (% control) 10.0 ([3]; dose 10.0, oral, NES mice, vs acclimated control): 84.9 % control; Fecal pellet output, Compound (% NES) 10.0 ([3]; dose 10.0, oral, vs vehicle NES group): 42.06 % NES; # of pellets, Compound (m) 30.0 ([3]; dose 30.0, oral, NES mice, fecal output 1 hr): 2.22; Fecal pellet output, Compound (% control) 30.0 ([3]; dose 30.0, oral, NES mice, vs acclimated control): 42 % control; Fecal pellet output, Compound (% NES) 30 ([3]; dose 30, oral, vs vehicle NES group): 20.77 % NES
Cc1cc(O)cc(C)c1C[C@H](N)C(=O)N(Cc1ccncc1)[C@@H](C)c1nc(-c2ccccc2)c[nH]1 [Cpd 57]	0.66	2.2	7.6	195	53.9	–
Cc1cc(O)cc(C)c1C[C@H](N)C(=O)N(Cc1ccc(C(=O)O)cc1)[C@@H](C)c1nc(-c2ccccc2)c[nH]1 [Cpd 80]	1.09	0.95	–	–	75.3	–
Cc1cc(C(N)=O)cc(C)c1C[C@H](N)C(=O)N(C(C)C)[C@@H](C)c1nc(-c2ccccc2)c[nH]1 [Cpd 143]	1.6	69	5.2	69.3	56.5	Fecal Output (# pellets) cpd ([3]; 10 mg/kg oral): 9.1 pellets; response vs control in vivo at 10 mg/kg ([3]; 10 mg/kg oral, relative to acclimated control, read-out: Fecal Output cpd % control): 246%; response vs control in vivo at 10 mg/kg ([3]; 10 mg/kg oral, relative to novel environment stress (NES) vehicle group, read-out: Fecal Output cpd % NES): 66.9%
Cc1cc(C(N)=O)cc(C)c1C[C@H](N)C(=O)N(C)[C@H](C)c1nc(-c2ccccc2)c[nH]1 [Cpd 144]	1.3	251	11.5	311	84.6	–
Cc1cc(O)cc(C)c1C[C@H](N)C(=O)N(Cc1ccoc1)[C@@H](C)c1nc(-c2ccccc2)c[nH]1 [Cpd 55]	1.8	44	8.3	213	58.9	–
Cc1cc(C(N)=O)cc(C)c1C[C@H](N)C(=O)N(Cc1nc(-c2ccccc2)c[nH]1)[C@@H](C)c1ccccc1 [Cpd 95]	7.8	278	8.5	315	93.4	–
Cc1cc(O)cc(C)c1C[C@H](N)C(=O)N(Cc1cccc(C#N)c1)[C@@H](C)c1nc(-c2ccccc2)c[nH]1 [Cpd 91]	4.8	15	8.9	287	69	–
Cc1cc(C(N)=O)cc(C)c1C[C@H](N)C(=O)N(C(C)C)[C@@H](CO)c1nc(-c2ccccc2)c[nH]1 [Cpd 85]	5.4	1170	7.9	146	65.8	–
